{"source": "patent US20240148765A1", "about": "“COMPOSITIONS AND METHODS FOR TREATING AND/OR PREVENTING THERAPY-RELATED CARDIOMYOPATHY ASSOCIATED WITH NEUTROPHIL INFILTRATION” (University of Virginia Patent Foundation, priority 2021, published 2024)", "key": {"CXCR2": {"molecular_target": "T1, CXCR2 (Mus musculus, UniProt P35343)", "T1 construct": "from tissue; host or cells: whole animal: wild-type C57BL/6J mice (receptor on the animals' own neutrophils)", "T1 sequence (P35343 1-359)": "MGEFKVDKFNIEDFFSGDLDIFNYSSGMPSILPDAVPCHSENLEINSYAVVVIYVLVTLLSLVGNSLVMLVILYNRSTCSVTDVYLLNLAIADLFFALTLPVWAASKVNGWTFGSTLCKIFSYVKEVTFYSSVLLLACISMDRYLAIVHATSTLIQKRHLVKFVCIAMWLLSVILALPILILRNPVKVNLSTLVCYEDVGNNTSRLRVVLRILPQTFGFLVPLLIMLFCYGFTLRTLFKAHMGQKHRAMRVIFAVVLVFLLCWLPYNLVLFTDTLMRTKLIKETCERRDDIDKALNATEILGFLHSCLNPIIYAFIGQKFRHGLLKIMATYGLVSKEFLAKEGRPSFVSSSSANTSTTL", "assay": "CXCR2 inhibitor SB265610 in Dox-treated wild-type mice", "format": "in vivo", "conditions": "2 mg/kg/day i.p.", "protocol": "(§1) Doxorubicin administration.\nSB265610 (CXCR2 inhibitor) administration. SB265610 (1-(2-Bromophenyl)-3-(4-cyano-1H-benzo[d] [1,2,3]triazol-7-yl)urea, N-(2-Bromophenyl)-N′-(7-cyano-1H-benzotriazol-4-yl)urea; Catalog No. SML0421; Sigma-Aldrich, St. Louis, Missouri, United States of America) was used to inhibit neutrophil infiltration into tissues. Mice were injected intraperitoneally with 2 mg/kg of SB265610, once a day, over a time course that starts 1 day before the start of doxorubicin administration until the end of the study. The solution of SB265610 was prepared in sterile dimethyl sulfoxide (DMSO) to a concentration of 10 mg/ml. The aliquoted mixture was stored at −20° C. and thawed before use. The solution was mixed with corn oil (Sigma Catalog No. C8267) to minimize the toxic effect of DMSO just before injection. Injections were performed using a sterile syringe and needle (29G). The expiration date of the mixture coincided with the expiration date of the SB265610."}, "[1]": {"system": "Trp53 mutant hematopoietic cells", "assay": "Adoptive bone marrow transplantation model of Trp53 clonal hematopoiesis with cycles of Dox; flow cytometry chimerism and blood counts", "format": "in vivo, mice", "protocol": "Non-myeloablative bone marrow transplantation.\nas §1\n(§2) Hematopoietic cell parameter measurements. […] Hematopoietic parameters were analyzed using an Element HT5 Veterinary Hematology Analyzer (Heska, Loveland, Colorado, United States of America)."}, "[2]": {"system": "lethally irradiated mice transplanted with Trp53-heterozygous cells", "assay": "Dox cardiotoxicity in myeloablative (competitive) BMT mice, 30% Trp53^+/− or wild-type cells", "protocol": "as §1\nQuantitative RT-PCR. Mouse total RNA was isolated using QIAzol reagent (Catalog No. 79306; Qiagen, Inc., Germantown, Maryland, United States of America), and was purified on the QIAcube. 1 μg RNA was reverse transcribed with a High-capacity cDNA Reverse Transcription Kit (Catalog No. 4368814; Thermo Fisher Scientific). qRT-PCR was performed with POWERUP™ SYBR™ Green reagent (Catalog No. 4367659; Thermo Fisher Scientific) in a QUANTSTUDIO™ 6 Flex PCR system (Thermo Fisher Scientific). Gene expression was calculated relative to 36b4 and normalized to controls. Data were calculated by AACt approach."}, "C57BL6/J wild type mice": {"system": "C57BL6/J wild type mice", "assay": "Single bolus of Dox in wild-type mice; cardiac parameters, blood counts, cardiac-resident leukocytes", "format": "in vivo", "protocol": "as §1, §2"}, "Ccr2-deficient mice": {"system": "Ccr2-deficient mice", "assay": "Dox-induced cardiac toxicity in Ccr2-deficient mice", "format": "in vivo", "conditions": "Ccr2-deficient relative to wild-type mice, 15 μg/g split into 3 injections, 4 weeks", "description": "Mice. […] All strains are C57BL/6J background.\nas §1"}, "[3]": {"system": "mice transplanted with wild-type or Trp53 mutant cells", "method": "Doxorubicin administration. Pattern 1: adoptive BMT mice were injected with doxorubicin 6 weeks after BMT using a model of therapy-related clonal hematopoiesis (Wang et al., 2020) involving 3 rounds of 2 mg/kg i.p. injection, with 3 weeks between each round. Pattern 2: competitive BMT mice, Trp53-Myelo-KO mice, Ccr2^gfp/gfp mice, and mice in neutrophil depletion and neutrophil recruitment inhibition studies were injected with doxorubicin with a dose of 15 μg/g (body weight) split into 3 injections at indicated time points. Pattern 3: wild-type mice were injected with a single dose of doxorubicin (15 μg/g) at indicated time points.\nEchocardiography. Cardiac function was assessed before and after Dox administration at indicated time points using a Vevo 2100 ultrasound system equipped with MS400D probe (FUJIFILM VisualSonics Inc., Toronto, Ontario, Canada). Echocardiography was performed as described in Wang et al., 2019. Briefly, mice were anesthetized with isoflurane at a concentration of 5% (induction phase) and 1-1.5% (maintenance phase). Each animal was placed on the heating table in a supine position with the extremities taped to the table through four electrocardiography leads. Chest fur was removed with a chemical hair remover, and ultrasound gel was applied to the thorax surface to improve the visibility of the cardiac chambers. Left ventricular diameter at end-diastole (LVDd, mm), left ventricular diameter at end-systole (LVDs, mm), posterior wall thickness in diastole (PWTd, mm), and fractional shortening (FS, %) were measured from M-mode images obtained by short-axis view visualizing both mid papillary muscles. Measurements and analysis were performed by two individuals who were blinded to the identity of the experimental groups of mice using a Vevo Lab software (FUJIFILM VisualSonics Inc.)."}, "[4]": {"system": "myeloid-specific Trp53-deficient mice (Lyz2^Cre/+Trp53^fl/fl)", "conditions": "mouse, in vivo", "from_the_text": "(§3) Mice. Wild-type mice (Cd45.2), Trp53-insufficient mice, Trp53^R27OH mice, Trp53-floxed mice, Lyz2-Cre mice, Pep Boy mice (Cd45.1), and Ccr2^gfp/gfp mice were obtained from The Jackson Laboratory (stock 000664, 002103, 008182, 008462, 004781, 002014, and 027619, respectively). All strains are C57BL/6J background. Mice with myeloid-restricted Trp53 ablation were generated by crossing Trp53-floxed mice (Trp53^fl/fl) with Lyz2-Cre mice. Male mice were used for both in vivo and in vitro experiments unless otherwise noted. Mice were housed in a specific pathogen-free animal facility and given food and water ad libitum on 12-hour dark/light schedule.\n(§4) Doxorubicin administration. Pattern 1: adoptive BMT mice were injected with doxorubicin 6 weeks after BMT using a model of therapy-related clonal hematopoiesis (Wang et al., 2020) involving 3 rounds of 2 mg/kg i.p. injection, with 3 weeks between each round. Pattern 2: competitive BMT mice, Trp53-Myelo-KO mice, Ccr2^gfp/gfp mice, and mice in neutrophil depletion and neutrophil recruitment inhibition studies were injected with doxorubicin with a dose of 15 μg/g (body weight) split into 3 injections at indicated time points. […]\n(§5) Quantitative RT-PCR. […] Gene expression was calculated relative to 36b4 and normalized to controls. Data were calculated by AACt approach."}, "[5]": {"system": "myeloid-specific Trp53-deficient mice (Lyz2^Cre/+Trp53^fl/fl)", "assay": "Dox-induced cardiotoxicity in myeloid-specific Trp53-deficient mice", "conditions": "Lyz2^Cre/+Trp53^fl/fl vs control mice treated with Dox", "from_the_text": "as §3, §4, §5"}, "[6]": {"conditions": "adoptive BMT mice, Dox in cycles vs saline"}, "[7]": {"conditions": "Trp53 heterozygous mutant vs wild-type bone marrow, 7 days after single Dox 15 μg/g"}, "[8]": {"conditions": "single bolus of Dox 15 μg/g i.p., up to 14 days"}, "[9]": {"conditions": "adoptive BMT mice treated with Dox"}, "[10]": {"conditions": "mice transplanted with wild-type cells, Dox cycles"}, "[11]": {"conditions": "mice with Trp53^R27OH mutant blood cells vs wild-type cells, Dox regimen"}}, "note": "Read-outs that look alike come from different tables or passages of the source.", "data": [{"molecule": "N#Cc1ccc(NC(=O)Nc2ccccc2Br)c2[nH]nnc12", "note": "[SB265610, 1-(2-Bromophenyl)-3-(4-cyano-1H-benzo[d] [1,2,3]triazol-7-yl)urea, N-(2-Bromophenyl)-N′-(7-cyano-1H-benzotriazol-4-yl)urea]", "values": [{"measurement": "neutrophil influx to the hearts", "setting": "CXCR2", "result": "reduced"}, {"measurement": "effects of Dox on cardiac wall thinning and function", "setting": "CXCR2; 14-day timepoint", "result": "reversed"}]}, {"molecule": "COc1cccc2c1C(=O)c1c(O)c3c(c(O)c1C2=O)C[C@@](O)(C(=O)CO)C[C@@H]3O[C@H]1C[C@H](N)[C@H](O)[C@H](C)O1", "note": "[Dox, doxorubicin]", "values": [{"measurement": "proportions of donor-derived Trp53^+/− cells in bone marrow LSK, LT-HSC and GMP fractions", "setting": "[1]; Dox vs saline control, at termination of the experiment", "result": "considerably higher"}, {"measurement": "expansion of donor-derived Trp53^+/− cells in circulating cell populations", "setting": "[1]; [6]", "result": "further expansion"}, {"measurement": "expansion of transplanted wild-type cells in circulating cell populations", "setting": "[1]; [6]", "result": "little or no effect"}, {"measurement": "hemoglobin levels and absolute numbers of hematopoietic cell types", "setting": "[1]; after the fourth cycle of Dox, prolonged administration", "result": "altered some of these parameters"}, {"measurement": "expansion of donor-derived Trp53^R27OH clones in circulating leukocytes and bone marrow HSPC fractions", "setting": "[1]; serial Dox administration, adoptive BMT", "result": "selective expansion"}, {"measurement": "heart transcripts of inflammatory mediators Il1b, Il6 and Tnf", "setting": "[2]; 8 weeks after Dox, mutant Trp53 vs wild-type cells", "result": "significant increase"}, {"measurement": "fractional shortening and posterior wall thickness of the heart", "setting": "[2]; Trp53^+/− vs wild-type group, VAF 0.15, after Dox", "result": "significant reductions"}, {"measurement": "neutrophil recruitment to the heart", "setting": "[2]; [7]", "result": "greater neutrophil recruitment"}, {"measurement": "numbers of Ly6C^hi monocytes or macrophages within cardiac tissue", "setting": "[2]; [7]", "result": "no effect"}, {"measurement": "cardiac wall dimension and function", "setting": "C57BL6/J wild type mice; single bolus of Dox 15 μg/g i.p., 14 days", "result": "reductions"}, {"measurement": "body weight", "setting": "C57BL6/J wild type mice; [8]", "result": "time-dependent loss"}, {"measurement": "heart weight", "setting": "C57BL6/J wild type mice; [8]", "result": "time-dependent loss"}, {"measurement": "peripheral blood monocytes", "setting": "C57BL6/J wild type mice; single bolus of Dox, 7-day timepoint", "result": "transient increase"}, {"measurement": "peripheral blood neutrophils", "setting": "C57BL6/J wild type mice; single bolus of Dox, at 7 days, sustained to 14 days", "result": "increase"}, {"measurement": "neutrophil recruitment to the heart", "setting": "C57BL6/J wild type mice; single bolus of Dox, levels maintained to 14 days", "result": "reached a peak at 7 days"}, {"measurement": "cardiac-resident macrophage number", "setting": "C57BL6/J wild type mice; single bolus of Dox, nadir at 7 days", "result": "decreased"}, {"measurement": "cardiac-resident monocyte number", "setting": "C57BL6/J wild type mice; single bolus of Dox, peak at 7 days", "result": "increased"}, {"measurement": "cardiac dysfunction after Dox", "setting": "Ccr2-deficient mice", "result": "comparable"}, {"measurement": "capillary density in the myocardium", "setting": "[3]; [9]", "result": "reduced capillary density"}, {"measurement": "fibrosis in the myocardium", "setting": "[3]; [9]", "result": "greater fibrosis"}, {"measurement": "cardiac contractility (echocardiography)", "setting": "[3]; [10]", "result": "deterioration"}, {"measurement": "ventricular wall (echocardiography)", "setting": "[3]; [10]", "result": "thinning"}, {"measurement": "cardiac contractility (echocardiography)", "setting": "[3]; [11]", "result": "significant reduction"}, {"measurement": "ventricular wall (echocardiography)", "setting": "[3]; [11]", "result": "wall thinning"}, {"measurement": "functional impairment and wall thinning", "setting": "[3]; mice with expanding Trp53^+/− clones vs wild-type cells, Dox cycles", "result": "significantly greater"}, {"measurement": "myocardial transcripts that encode inflammatory mediators", "setting": "[4]", "result": "upregulation"}, {"measurement": "survival", "setting": "[5]", "result": "reduced survival"}]}]}
